Patent US10358416B2, “Substituted pyrrolidines as G-protein coupled receptor 43 agonists” (Ogeda SA, priority 2009, dated 2019)

Test system: ob/ob mice
Assay: Oral glucose tolerance test (OGTT) in ob/ob mice
Assay type: in vivo
Settings: bi-daily 50 mg/kg during 28 days, AUC from -15 to 120 min
Method: Ob/ob or obese mice are leptin-deficient mice that eat excessively and become profoundly obese, hyperinsulinemic and hyperglycemic. It is an animal model of type II diabetes. Such model can be used for oral glucose tolerance tests (OGTTs). A total of sixteen (16) male ob/ob mice (6 weeks of age) were obtained from Harlan. Upon arrival to the animal unit, mice were housed 4 per cage in rodent cages mounted with feeders containing regular chow. The mice were put in a 12/12h light-dark cycle (light from 0600-1800 h) with controlled temperature conditions (22-24° C.). Fed blood glucose and body-weight was measured on day −2 in the morning between 08:00 AM and 09:00 AM. Animals were randomized into 2 groups according to fed glucose levels (on day −2). […]
Day 1 is the first day of dosing. […] At −15 min, blood glucose was measured (using a glucose analyzer) and animals were dosed with compounds of the invention or vehicle. At time point 0, blood glucose was measured again and glucose was administered by oral gavage (1 g/kg glucose). The blood glucose was then measured at time points 15, 30, 45, 60 and 120 minutes. […] The percentages of AUC inhibition induced by compounds of the invention were calculated as follows: % of AUC inhibition: [1−(AUC compound/AUC vehicle)]*100.

COc1ccccc1-c1ccc(C(=O)N2[C@@H](c3ccccc3Cl)CC[C@H]2C(=O)O)cc1 [Compound 1, (2S,5R)-5-(2-chlorophenyl)-1-(2′-methoxy-[1,1′-biphenyl]-4-carbonyl)pyrrolidine-2-carboxylic acid]
% of AUC inhibition (blood glucose AUC, OGTT): 40%
